The supplement of paper PMC11208160

Assay: recombinant barcode read abundance after kanamycin selection (control-corrected) (log10(CPM+1)); higher = more efficient recombination; sequences stand for … in AGTGCAGAGAAAATCGGCCAGTTTTCTCTGCCTGCAGTCCGCATGCCGT…AGATTTATGCAGCGGACTGCCTTTCTCCCAAAGTGATAAACCGGACAGTATCATGGACCGGTTTTCCCGGTAATCCGTATTTGCAAGGTTGGTTTCACT; site = the 11-nt target
Summary of the method: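 Oligos holding a promoter, target, barcode and the J23119-driven first 104 bases of the bridge RNA were Gibson-cloned into a vector that supplied the other 73 bp plus a T7-inducible recombinase. This library was co-electroporated with a donor plasmid into E. coli. Two replicates went on chloramphenicol/ampicillin LB agar (control) and two on chloramphenicol/ampicillin/kanamycin with 0.1 mM IPTG. Recombination efficiency is read from averaged, control-corrected barcode counts per million at recombinant junctions, reported as log10(CPM+1).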
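Also: IS621 recombinase and bridge RNA in Escherichia coli cells.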

Sequence	recombinant barcode read abundance (log10)
GGATAGCCTTGGGTTCTAACCTGTTGCCT (site AGATAGCCTAG)	0.902
GGATAGCCTTGGGTTCTAACCTGTTGCCT (site CGATAGCCTAG)	0.0205
GGATAGCCTTGGGTTCTAACCTGTTGCCT (site GGATAGCCTAG)	1.71
GGATAGCCTTGGGTTCTAACCTGTTGCCT (site TGATAGCCTAG)	0.239
GGATATCCTTGGGTTCTAACCTGTTGCCT (site GGATATCCTAG)	0.645
GGATATCCTTGGGTTCTAACCTGTTGCCT (site TGAAATCCTAG)	0.114
GGATCGTCTTGGGTTCTAACCTGTTGCCT (site GGATCGTCTAG)	1.44
GGATCGTCTTGGGTTCTAACCTGTTGCCT (site GGTTCCTCTAG)	0.0567
GGATTCTCTTGGGTTCTAACCTGTTGCCT (site GGACTCACTAG)	0.0575
GGATTCTCTTGGGTTCTAACCTGTTGCCT (site GGATTCTCTAG)	1.83
GGCAAGGCTTGGGTTCTAACCTGTTGCCT (site ACGGGTCCTCT)	0.417
GGCAAGGCTTGGGTTCTAACCTGTTGCCT (site GGCAAGGCTAG)	0.0617
GGCACCACTTGGGTTCTAACCTGTTGCGT (site GGCACCACTAC)	1.58
GGCACCACTTGGGTTCTAACCTGTTGCGT (site GGCACTACTAC)	0.108
GGCACTACTTGGGTTCTAACCTGTTGCGT (site GGCACCACTAC)	0.661
GGCACTACTTGGGTTCTAACCTGTTGCGT (site GGCACTACTAC)	0.28
GGCACTTCTTGGGTTCTAACCTGTTGCCT (site GGCACTTCTAG)	0.188
GGCACTTCTTGGGTTCTAACCTGTTGCCT (site GGCTCTTCTAG)	0.136
GGCATGTCTTGGGTTCTAACCTGTTGCCT (site GGCATGTCTAG)	1.15
GGCATGTCTTGGGTTCTAACCTGTTGCCT (site GGCTTGTCTAG)	0.0534
GGCCCGCCTTGGGTTCTAACCTGTTGCCT (site AGCCCGCCTAG)	0.0411
GGCCCGCCTTGGGTTCTAACCTGTTGCCT (site CGCCCGCCTAG)	0.00686

Sequence	recombinant barcode read abundance (log10)
GGCCCGCCTTGGGTTCTAACCTGTTGCCT (site GGCCCGCCTAG)	0.734
GGCCCGCCTTGGGTTCTAACCTGTTGCCT (site TGCCCGCCTAG)	0.0746
GGCGATCCTTGGGTTCTAACCTGTTGCCT (site GACGATCCTAG)	0.151
GGCGATCCTTGGGTTCTAACCTGTTGCCT (site GCCGATCCTAG)	0.213
GGCGATCCTTGGGTTCTAACCTGTTGCCT (site GGCGATCCTAG)	1.15
GGCGATCCTTGGGTTCTAACCTGTTGCCT (site GTCGATCCTAG)	0.059
GGCGCGTCTTGGGTTCTAACCTGTTGCAT (site GGAGCGTCTAC)	0.0291
GGCGCGTCTTGGGTTCTAACCTGTTGCAT (site GGCGCGTCTAT)	0.589
GGCGGCCCTTGGGTTCTAACCTGTTGCGG (site GACTGCCCTCC)	0.103
GGCGGCCCTTGGGTTCTAACCTGTTGCGG (site GGCGGCCCTCC)	2.31
GGCGTGCCTTGGGTTCTAACCTGTTGCGT (site AAGAACTCTTG)	0.0755
GGCGTGCCTTGGGTTCTAACCTGTTGCGT (site GGCGTGCCTAC)	2.95
GGCGTGTCTTGGGTTCTAACCTGTTGCGG (site GACGTGTCTCG)	0.125
GGCGTGTCTTGGGTTCTAACCTGTTGCGG (site GGCGTGTCTCC)	2.07
GGCTAGTCTTGGGTTCTAACCTGTTGCTT (site GGATTGTCTAA)	0.109
GGCTAGTCTTGGGTTCTAACCTGTTGCTT (site GGCTAGTCTAA)	0.561
GGCTCTACTTGGGTTCTAACCTGTTGCGG (site GGCTAGACTCC)	0.0656
GGCTCTACTTGGGTTCTAACCTGTTGCGG (site GGCTCTACTCC)	0.326
GGCTCTTCTTGGGTTCTAACCTGTTGCCT (site GGCACTTCTAG)	0.221
GGCTCTTCTTGGGTTCTAACCTGTTGCCT (site GGCTCTTCTAG)	0.332
GGCTGTCCTTGGGTTCTAACCTGTTGCGT (site CTAAAAGCTTT)	0.0937
GGCTGTCCTTGGGTTCTAACCTGTTGCGT (site GGCTGTCCTAC)	0.751

Sequence	recombinant barcode read abundance (log10)
GGGAACCCTTGGGTTCTAACCTGTTGCTG (site GGGAACCCTAA)	0.0418
GGGAACCCTTGGGTTCTAACCTGTTGCTG (site GGGAACCCTCA)	1.5
GGGAACCCTTGGGTTCTAACCTGTTGCTG (site GGGAACCCTGA)	0.0561
GGGAACCCTTGGGTTCTAACCTGTTGCTG (site GGGAACCCTTA)	0.867
GGGACAACTTGGGTTCTAACCTGTTGCCT (site GGGACAACTAG)	0.0953
GGGACAACTTGGGTTCTAACCTGTTGCCT (site GGGGTAACTAG)	0.0828
GGGACTACTTGGGTTCTAACCTGTTGCGG (site CGGGCTACTCC)	0.0949
GGGACTACTTGGGTTCTAACCTGTTGCGG (site GGGACTACTCC)	1.86
GGGACTTCTTGGGTTCTAACCTGTTGCAT (site GGGACTTCTAT)	0.937
GGGACTTCTTGGGTTCTAACCTGTTGCAT (site GGGCCTTCTAT)	0.0615
GGGACTTCTTGGGTTCTAACCTGTTGCAT (site GGGGCTTCTAT)	0.273
GGGACTTCTTGGGTTCTAACCTGTTGCAT (site GGGTCTTCTAT)	0.164
GGGATGGCTTGGGTTCTAACCTGTTGCCT (site GGGATGGCTAG)	1.32
GGGATGGCTTGGGTTCTAACCTGTTGCCT (site TGGATGGCTAG)	0.0489
GGGCAACCTTGGGTTCTAACCTGTTGCGT (site GGGCAACCTAC)	2.84
GGGCAACCTTGGGTTCTAACCTGTTGCGT (site GGGCAGCCTAG)	0.117
GGGCACACTTGGGTTCTAACCTGTTGCAC (site CTTGCATCTAG)	0.244
GGGCACACTTGGGTTCTAACCTGTTGCAC (site GGGCACACTGT)	2.52
GGGCACACTTGGGTTCTAACCTGTTGCCA (site GGGAACACTTG)	0.193
GGGCACACTTGGGTTCTAACCTGTTGCCA (site GGGCACACTTG)	0.698
GGGCATCCTTGGGTTCTAACCTGTTGCAT (site GGGCATCCTAT)	1.82
GGGCATCCTTGGGTTCTAACCTGTTGCAT (site TCATTAGCTCG)	0.246

Sequence	recombinant barcode read abundance (log10)
GGGCCCGCTTGGGTTCTAACCTGTTGCGG (site GGACGCGCTCC)	0.111
GGGCCCGCTTGGGTTCTAACCTGTTGCGG (site GGGCCCGCTCC)	1.29
GGGCCTACTTGGGTTCTAACCTGTTGCTA (site GGGCCTACTAA)	0.0406
GGGCCTACTTGGGTTCTAACCTGTTGCTA (site GGGCCTACTCA)	0.642
GGGCCTACTTGGGTTCTAACCTGTTGCTA (site GGGCCTACTGA)	0.482
GGGCCTACTTGGGTTCTAACCTGTTGCTA (site GGGCCTACTTA)	1.36
GGGCCTACTTGGGTTCTAACCTGTTGCTG (site GGGCCTACTAA)	0.165
GGGCCTACTTGGGTTCTAACCTGTTGCTG (site GGGCCTACTCA)	2.06
GGGCCTACTTGGGTTCTAACCTGTTGCTG (site GGGCCTACTGA)	0.215
GGGCCTACTTGGGTTCTAACCTGTTGCTG (site GGGCCTACTTA)	0.121
GGGGAATCTTGGGTTCTAACCTGTTGCAT (site GGGGAATCTAT)	1.96
GGGGAATCTTGGGTTCTAACCTGTTGCAT (site GGGGACTCTGT)	0.079
GGGGACTCTTGGGTTCTAACCTGTTGCAC (site GGGGAATCTAT)	0.0994
GGGGACTCTTGGGTTCTAACCTGTTGCAC (site GGGGACTCTGT)	3.1
GGGGCACCTTGGGTTCTAACCTGTTGCTA (site GGGGCACCTTA)	2.35
GGGGCACCTTGGGTTCTAACCTGTTGCTA (site TGGGCACCTAA)	0.128
GGGGCGCCTTGGGTTCTAACCTGTTGCCT (site GGGGCGACTAG)	0.44
GGGGCGCCTTGGGTTCTAACCTGTTGCCT (site GGGGCGCCTAG)	1.76
GGGGCGCCTTGGGTTCTAACCTGTTGCCT (site GGGGCGGCTAG)	0
GGGGCGCCTTGGGTTCTAACCTGTTGCCT (site GGGGCGTCTAG)	0.279
